Reference: patent US20250129082A1, “N-1 Triazole Substituted Imidazoquinolines, Conjugates Thereof, and Methods” (Solventumn Intellectual Properties Company, priority 2021, published 2025)

Columns and labels:
Format in all cases: cell-based
[1] = molecular target: T1, human TLR8 (Homo sapiens, UniProt Q9NR97); assay: TLR activation and specificity, HEK-BLUE-hTLR8 SEAP reporter cells; details: 16-20 hours, lowest concentration giving SEAP response at least 2× vehicle control, tested 0.01-30 micromolar
T1 construct: host or cells: HEK293 (HEK-BLUE-hTLR8)
T1 sequence (Q9NR97 27-1041): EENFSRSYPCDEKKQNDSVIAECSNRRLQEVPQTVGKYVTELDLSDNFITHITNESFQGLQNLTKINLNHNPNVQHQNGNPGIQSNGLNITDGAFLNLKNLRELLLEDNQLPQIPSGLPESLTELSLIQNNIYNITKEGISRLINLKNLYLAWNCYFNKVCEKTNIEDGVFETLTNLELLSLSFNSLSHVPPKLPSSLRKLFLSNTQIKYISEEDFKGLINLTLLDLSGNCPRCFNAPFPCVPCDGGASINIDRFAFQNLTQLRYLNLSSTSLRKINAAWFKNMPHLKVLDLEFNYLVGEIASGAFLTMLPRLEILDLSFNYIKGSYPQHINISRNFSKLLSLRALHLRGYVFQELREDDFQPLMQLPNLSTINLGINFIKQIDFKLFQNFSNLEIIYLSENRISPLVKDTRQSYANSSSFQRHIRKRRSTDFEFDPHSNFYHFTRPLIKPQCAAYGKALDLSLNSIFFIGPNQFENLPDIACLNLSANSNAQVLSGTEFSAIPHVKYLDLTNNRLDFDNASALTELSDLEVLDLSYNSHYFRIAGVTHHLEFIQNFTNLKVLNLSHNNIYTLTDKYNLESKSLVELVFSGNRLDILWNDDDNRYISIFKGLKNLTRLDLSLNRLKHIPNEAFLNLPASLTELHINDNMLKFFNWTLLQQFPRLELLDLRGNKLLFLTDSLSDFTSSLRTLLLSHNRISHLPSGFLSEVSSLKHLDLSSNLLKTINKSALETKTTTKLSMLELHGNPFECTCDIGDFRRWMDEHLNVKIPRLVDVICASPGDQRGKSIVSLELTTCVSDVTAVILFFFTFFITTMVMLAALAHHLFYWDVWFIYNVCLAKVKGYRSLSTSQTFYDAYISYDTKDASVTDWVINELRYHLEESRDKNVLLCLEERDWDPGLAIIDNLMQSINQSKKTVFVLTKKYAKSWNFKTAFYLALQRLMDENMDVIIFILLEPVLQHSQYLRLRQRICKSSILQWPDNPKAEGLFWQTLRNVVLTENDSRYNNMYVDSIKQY
Protocol: (§1) HEK-BLUE-hTLR7 or hTLR8 reporter cells were obtained from InvivoGen, San Diego, CA. According to the manufacturer's description, these reporter cells were prepared by co-transfection of HEK293 cells with an inducible secreted embryonic alkaline phosphatase (SEAP) reporter gene and either the human TLR7 or TLR8 gene. The SEAP reporter gene was placed under the control of an IFN-β minimal promoter fused to five NF-κB and AP-1-binding sites. In the presence of a TLR ligand, activation of NF-κB and AP-1 occurs, resulting in a corresponding increase in SEAP levels.
(§2) In the assay, the HEK cells were grown and maintained using standard cell culture techniques in a growth medium that contained Dulbecco's Modified Eagle Medium (ThermoFisher Scientific Incorporated, Waltham, MA) supplemented with 1% penicillin/streptomycin and 10% heat-inactivated Gibco fetal bovine serum (ThermoFisher Scientific). Each compound was solubilized in DMSO to create a 3 mM stock solution. The stock solution was then further diluted with the growth medium to prepare serial dilutions. Each test compound was tested at a concentration of 30, 10, 3.3, 1.1, 0.37, 0.12, 0.04, and 0.01 micromolar using a 96-well format with 5×10^4 cells and 200 microliters of growth medium per well.
(§3) For each compound, hTLR7, hTLR8, and their respective null control HEK cells were screened. DMSO serially diluted into the growth medium served as the vehicle control. Cell culture supernatants containing the SEAP reporter were collected after an incubation period of 16-20 hours in a cell culture incubator (37° C. and 5% CO2), and either analyzed immediately or stored at −80° C. SEAP levels were measured using the colorimetric enzyme assay (QUANTI-BLUE (InvivoGen) according to manufacturer's instructions.
(§4) Specifically, the minimum effective concentration of each compound (micromolar) was determined as the lowest concentration of the compound that produced a SEAP expression response at least 2× greater than that observed with the vehicle control wells.

[2] = molecular target: T2, human TLR7 (Homo sapiens, UniProt Q9NYK1); assay: TLR activation and specificity, HEK-BLUE-hTLR7 SEAP reporter cells; details: 16-20 hours, lowest concentration giving SEAP response at least 2× vehicle control, tested 0.01-30 micromolar
T2 construct: host or cells: HEK293 (HEK-BLUE-hTLR7)
T2 sequence (Q9NYK1 27-1049): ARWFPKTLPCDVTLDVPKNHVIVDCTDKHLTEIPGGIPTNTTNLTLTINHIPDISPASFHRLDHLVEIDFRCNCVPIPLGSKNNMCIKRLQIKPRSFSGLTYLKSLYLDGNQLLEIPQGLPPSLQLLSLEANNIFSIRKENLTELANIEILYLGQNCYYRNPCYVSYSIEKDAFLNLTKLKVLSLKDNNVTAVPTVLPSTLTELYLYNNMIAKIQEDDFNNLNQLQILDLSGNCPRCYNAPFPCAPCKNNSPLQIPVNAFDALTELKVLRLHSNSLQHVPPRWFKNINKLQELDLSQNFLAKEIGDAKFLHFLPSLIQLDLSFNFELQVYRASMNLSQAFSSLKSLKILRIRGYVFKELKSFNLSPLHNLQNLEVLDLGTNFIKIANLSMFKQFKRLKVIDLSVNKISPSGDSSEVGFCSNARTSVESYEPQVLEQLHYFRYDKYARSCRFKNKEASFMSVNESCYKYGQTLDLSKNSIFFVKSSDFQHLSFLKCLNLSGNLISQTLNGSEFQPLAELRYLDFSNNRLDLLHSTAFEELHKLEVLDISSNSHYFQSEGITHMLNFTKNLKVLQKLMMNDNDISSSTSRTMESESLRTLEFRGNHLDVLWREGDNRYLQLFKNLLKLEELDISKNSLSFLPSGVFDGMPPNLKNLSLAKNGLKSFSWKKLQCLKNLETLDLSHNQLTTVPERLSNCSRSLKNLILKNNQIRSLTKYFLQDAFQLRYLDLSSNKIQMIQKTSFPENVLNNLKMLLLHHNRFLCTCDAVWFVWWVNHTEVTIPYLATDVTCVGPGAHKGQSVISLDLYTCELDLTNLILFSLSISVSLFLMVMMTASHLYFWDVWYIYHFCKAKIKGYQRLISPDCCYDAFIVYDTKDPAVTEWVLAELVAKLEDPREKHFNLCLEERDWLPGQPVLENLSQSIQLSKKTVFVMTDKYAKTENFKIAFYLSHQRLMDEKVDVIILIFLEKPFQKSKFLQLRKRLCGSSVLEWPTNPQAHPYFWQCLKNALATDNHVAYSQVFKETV
Protocol: as §1, §2, §3, §4

[3] = tested on: Human peripheral blood mononuclear cells (PBMC); assay: Cytokine induction in human cells (PBMC), Ella Simple Plex ELISA; details: 21-24 hours, tested 0.01-30 micromolar; for MEC to Induce Cytokine, IFN-alpha: lowest concentration inducing IFN-alpha at least 2× negative control; for MEC to Induce Cytokine, IFN-gamma: lowest concentration inducing IFN-gamma at least 2× negative control; for MEC to Induce Cytokine, TNF-alpha: lowest concentration inducing TNF-alpha at least 2× negative control
Protocol: Whole blood was obtained from healthy human donors and collected by venipuncture into vacutainer tubes or syringes containing EDTA. Human peripheral blood mononuclear cells (PBMC) were purified from the whole blood by density gradient centrifugation. Histopaque 1077 (15 mL, Sigma-Aldrich) was transferred to 6×50 mL sterile polypropylene conical tubes. The Histopaque was overlayed with 15-25 mL of blood diluted 1:2 in Hank's Balanced Salts Solution (HBSS) (Gibco, Life Technologies, Grand Island, NY). The tubes were then centrifuged at 1370 rpm for 30 minutes at 20° C., with no brake (400λg, GH 3.8A Rotor).
The interface (buffy coat) containing the PBMC was collected and placed in a new sterile 50 mL conical polypropylene centrifuge tube. The PBMC were mixed with an equal volume of HBSS (about 20 mL from the interface and about 20 mL of HBSS), and then centrifuged at 1090 rpm, 10 minutes, 20° C., with brake (270λg, GH 3.8A Rotor). After completing centrifugation, the cells were resuspended in 2-3 mL ACK Red blood cell lysis buffer (ammonium chloride potassium solution, Gibco, Life Technologies) and incubated for 2-5 minutes at 20° C. Next, HBSS (40 mL) was added to the cells, and the sample was centrifuged at 270×g for 10 minutes at 20° C. The supernatant was decanted, and the cell pellet was resuspended in 5 mL AIM V Medium (Gibco, Life Technologies). Cell aggregates and debris were removed by filtering the cell solution through a BD Falcon 70 micron nylon cell strainer (BD Biosciences, San Jose, CA).
The number of viable cells was determined by counting with a Moxi Z instrument (ORFLO Technologies, Ketchum, ID) or by using a hemacytometer. For determining cell viability with a hemacytometer, the cells were diluted 1/10 in 0.4% trypan blue and HBSS (specifically, 50 microliter of trypan blue+40 microliter of HBSS+10 microliter of cell solution were added to a microfuge tube and mixed). Ten microliters of the diluted cells were then applied to the hemacytometer, and the number of viable PBMC were determined by microscopy.
The PBMC sample was then resuspended in 96-well plates at a concentration of 8×10^5 cells/well in 0.1 mL of AIM-V medium. Each compound was solubilized in DMSO to create a 3 mM stock solution. The stock solution was then further diluted with AIM-V medium to prepare the serial dilutions. The diluted compound (100 microliters) was then transferred to the PBMCs to produce testing sets with final compound concentrations of 30, 10, 3.3, 1.1, 0.37, 0.12, 0.04, 0.01 micromolar. The plates also had both positive and negative controls. The negative control wells contained only AIM-V medium with no example compound. The positive control wells contained a control set of imiquimod serially diluted to concentrations of 30, 10, 3.3, 1.1, 0.37, 0.12, 0.04, 0.01 micromolar. The concentrations used in the control set were selected to match the concentrations used in the testing set. The plates were then cultured at 37° C./5% CO2 for 21-24 hours. Cell-free supernatants were harvested by centrifuging the 96-well plates at 2100 rpm, 23° C. for 10 minutes. Approximately 160 microliters of the supernatant was then stored in a NUNC 96-well plate, covered with the compression cap and stored at −80° C. until the cytokine analysis was done.
Cytokine levels (human IFN-alpha multisubtype, human IFN-gamma, and human TNF-alpha) were measured in picograms/mL by Ella Simple Plex ELISA (ProteinSimple, San Jose, CA) according to the manufacturer's instructions.
Specifically, the minimum effective concentration of each compound (micromolar) was determined as the lowest concentration of the compound that induced a measured cytokine response at a level ([…]) that was at least 2× greater than that observed with the negative control wells.

SMILES | MEC to Produce TLR Activation, TLR 8 [1] | MEC to Produce TLR Activation, TLR 7 [2] | MEC to Induce Cytokine, IFN-alpha [3] | MEC to Induce Cytokine, IFN-gamma [3] | MEC to Induce Cytokine, TNF-alpha [3]
CCOC[C@H](Cc1ccc(OCCCCCCCCCCCN=[N+]=[N-])cc1)n1cnc2c(N)nc3ccccc3c21 [Example 3, (S)-1-(1-(4-((11-azidoundecyl)oxy)phenyl)-3-ethoxypropan-2-yl)-1H-imidazo[4,5-c]quinolin-4-amine] | >30 µM | 1.1 µM | 3.3 µM | >30 µM | 1.1 µM
CCOC[C@H](Cc1ccc(OCCN=[N+]=[N-])cc1)n1cnc2c(N)nc3ccccc3c21 [Example 1, (S)-1-(1-(4-(2-azidoethoxy)phenyl)-3-ethoxypropan-2-yl)-1H-imidazo[4,5-c]quinolin-4-amine] | 10 µM | ≤0.01 µM | ≤0.01 µM | ≤0.01 µM | ≤0.01 µM
CCOC[C@H](Cc1ccc(OCCCCCCCCCCCn2cc(-c3ccccc3)nn2)cc1)n1cnc2c(N)nc3ccccc3c21 [Example 4, (S)-1-(1-ethoxy-3-(4-((11-(4-phenyl-1H-1,2,3-triazol-1-yl)undecyl)oxy)phenyl)propan-2-yl)-1H-imidazo[4,5-c]quinolin-4-amine] | 3.3 µM | 3.3 µM | 3.3 µM | 10 µM | 3.3 µM
CCOC[C@H](Cc1ccc(OCCn2cc(-c3ccccc3)nn2)cc1)n1cnc2c(N)nc3ccccc3c21 [Example 2, (S)-1-(1-ethoxy-3-(4-(2-(4-phenyl-1H-1,2,3-triazol-1-yl)ethoxy)phenyl)propan-2-yl)-1H-imidazo[4,5-c]quinolin-4-amine] | 3.3 µM | ≤0.01 µM | ≤0.01 µM | ≤0.01 µM | ≤0.01 µM
